In patent US11986471B2, “Compounds and methods of use” (Tango Therapeutics, Inc., priority 2018, dated 2024):

Assays:
HAP1 MTAP-intact = experiment: SDMA in-cell western assay, HAP1 MTAP-intact cell line; format: cell-based; details: Homo sapiens
How it was run: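 IC50 values come from SDMA in-cell western staining of HAP1 cells. The MTAP-intact line carries endogenous MTAP, while its MTAP-deleted counterpart lacks MTAP entirely. A selectivity ratio of at least 3 fold marks a compound as MTAP-selective.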

PRMT5 [1] = molecular target: T1, PRMT5 (Homo sapiens, UniProt O14744); experiment: PRMT5 IC50 assay in the presence of SAM as cofactor; format: biochemical
T1 construct: purchased Viva (custom protein)
T1 sequence (O14744 whole entry): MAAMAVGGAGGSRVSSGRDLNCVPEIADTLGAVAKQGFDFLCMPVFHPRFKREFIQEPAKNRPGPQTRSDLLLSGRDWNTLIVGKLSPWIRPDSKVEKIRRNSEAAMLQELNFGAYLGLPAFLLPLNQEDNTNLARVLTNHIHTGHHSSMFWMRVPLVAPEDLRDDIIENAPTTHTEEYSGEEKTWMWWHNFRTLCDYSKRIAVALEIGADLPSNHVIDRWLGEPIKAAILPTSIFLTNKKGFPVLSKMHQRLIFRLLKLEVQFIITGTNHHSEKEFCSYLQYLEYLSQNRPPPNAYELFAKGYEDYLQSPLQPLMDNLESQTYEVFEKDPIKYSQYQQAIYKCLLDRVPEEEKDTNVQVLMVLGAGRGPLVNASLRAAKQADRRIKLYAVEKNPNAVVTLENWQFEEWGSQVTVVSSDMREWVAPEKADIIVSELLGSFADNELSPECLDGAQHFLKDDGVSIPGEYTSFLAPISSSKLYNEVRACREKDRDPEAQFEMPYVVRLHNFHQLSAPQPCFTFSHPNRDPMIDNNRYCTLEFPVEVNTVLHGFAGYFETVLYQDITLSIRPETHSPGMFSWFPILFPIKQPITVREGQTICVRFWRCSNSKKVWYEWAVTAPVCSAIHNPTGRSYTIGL
T1 sequence (Q9BQA1 whole entry partner): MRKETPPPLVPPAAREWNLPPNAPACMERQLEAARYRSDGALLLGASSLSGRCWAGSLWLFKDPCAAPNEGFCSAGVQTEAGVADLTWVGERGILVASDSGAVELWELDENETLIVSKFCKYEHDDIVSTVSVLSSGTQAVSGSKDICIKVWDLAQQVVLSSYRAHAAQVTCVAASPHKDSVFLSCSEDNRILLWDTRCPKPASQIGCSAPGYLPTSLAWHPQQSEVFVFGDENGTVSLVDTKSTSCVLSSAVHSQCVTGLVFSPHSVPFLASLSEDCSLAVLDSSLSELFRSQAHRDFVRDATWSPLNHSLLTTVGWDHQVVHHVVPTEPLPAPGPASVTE
How it was run: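 For the SAM-containing format, dividing IC50 by 1.5 yields Ki; for the MTA-containing format the divisor is 13.5. A third format without cofactor gives IC50 alone.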

HAP1 MTAP-deleted = experiment: SDMA in-cell western assay, HAP1 MTAP-deleted cell line; format: cell-based; details: for IC50: Homo sapiens, HAP1 MTAP-deleted cell line; for MTAP Intact/Deleted Ratio: IC50 ratio HAP1 MTAP-intact / HAP1 MTAP-deleted
How it was run: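 Readout is cellular SDMA signal by in-cell western, with IC50 values derived from it. The cells are MTAP-null HAP1, matched to an isogenic MTAP-intact HAP1 line.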

PRMT5 [2] = molecular target: T1, PRMT5; experiment: PRMT5 IC50 assay in the presence of MTA as cofactor; format: biochemical; details: for IC50: PRMT5, MTA as cofactor; for SAM/MTA Ratio: ratio between Ki in the presence of SAM and Ki in the presence of MTA
How it was run: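 IC50 values were measured against human PRMT5 with SAM, with MTA, or with no cofactor. Ki was derived from IC50 as Ki=IC50/1.5 with SAM and Ki=IC50/13.5 with MTA, and the Ki(SAM)/Ki(MTA) ratio was then taken.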

PRMT5 [3] = molecular target: T1, PRMT5; experiment: PRMT5 IC50 assay with no cofactor; format: biochemical; details: read-out: No Co-factor IC50
How it was run: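 Three cofactor conditions tested for PRMT5 inhibition: none, MTA and SAM, each giving an IC50. For conversion to Ki, the MTA-condition IC50 is divided by 13.5 and the SAM-condition IC50 by 1.5, and the two Ki values are expressed as a SAM/MTA ratio.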

SMILES | IC50 (HAP1 MTAP-intact) | IC50 (PRMT5 [1]) | IC50 (HAP1 MTAP-deleted) | MTAP Intact/Deleted Ratio (HAP1 MTAP-deleted) | IC50 (PRMT5 [2]) | SAM/MTA Ratio (PRMT5 [2]) | IC50 (PRMT5 [3])
CC(=O)N1CCN(c2nc(NC3COC3)cc(C(=O)NC[C@H](O)CN3CCc4cc(OCc5ocnc5C)ccc4C3)n2)CC1 [Compound 401, 2-(4-acetylpiperazin-1-yl)-N-[(2S)-2-hydroxy-3-{6-[(4-methyl-E3-oxazol-5-yl)methoxy]-1,2,3,4-tetrahydroisoquinolin-2-yl}propyl]-6-[(oxetan-3-yl)amino]pyrimidine-4-carboxamide] | ≥ 10 µM | 0.05 to 0.5 µM | 1 to 10 µM | B* (an IC50 ratio greater than or equal to 3 fold but lower than 10 fold between the IC50 in the HAP1 MTAP-intact cell line and the HAP1 MTAP-deleted cell line) | 0.05 to 0.5 µM | A (a Ki ratio greater than or equal to 10 fold between the Ki in the presence of SAM and the Ki in the presence of MTA) | 0.5 to 5 µM
Cc1c(OCc2cnco2)ccc2c1CCN(C[C@@H](O)CNC(=O)c1ccnc(NC3CCN(C(=O)C(C)(C)C)CC3)c1)C2 [Compound 402, (S)—N-(2-hydroxy-3-(5-methyl-6-(oxazol-5-ylmethoxy)-3N-dihydroisoquinolin-2(1H)-yl)propyl)-2-((1-pivaloylpiperidin-4-yl)amino)isonicotinamide] | ≥ 10 µM | 0.05 to 0.5 µM | 1 to 10 µM | B* (an IC50 ratio greater than or equal to 3 fold but lower than 10 fold between the IC50 in the HAP1 MTAP-intact cell line and the HAP1 MTAP-deleted cell line) | 0.05 to 0.5 µM | A (a Ki ratio greater than or equal to 10 fold between the Ki in the presence of SAM and the Ki in the presence of MTA) | 0.5 to 5 µM
Cc1ncoc1COc1ccc2c(c1)CCN(C[C@@H](O)CNC(=O)c1cc(NC3CCC3)nc(N3CCN(C(C)(C)C)CC3)c1)C2 [Compound 403, 2-(4-tert-butylpiperazin-1-yl)-6-(cyclobutylamino)-N-[(2S)-2-hydroxy-3-{6-[(4-methyl-1,3-oxazol-5-yl)methoxy]-1,2,3,4-tetrahydroisoquinolin-2-yl}propyl]pyridine-4-carboxamide] | < 1 µM | 0.05 to 0.5 µM | ≥ 10 µM | C* (an IC50 ratio of less than 3 fold between the IC50 in the HAP1 MTAP-intact cell line and the HAP1 MTAP-deleted cell line) | 0.05 to 0.5 µM | A (a Ki ratio greater than or equal to 10 fold between the Ki in the presence of SAM and the Ki in the presence of MTA) | 0.5 to 5 µM
O=C(NC[C@H](O)CN1CCc2c(ccc(OCc3cnco3)c2Br)C1)c1ccnc(NC2CCCC2)c1 [Compound 404, (S)—N-(3-(5-bromo-6-(oxazol-5-ylmethoxy)-3N-dihydroisoquinolin-2(1H)-yl)-2-hydroxypropyl)-2-(cyclopentylamino)isonicotinamide] | ≥ 10 µM | 0.05 to 0.5 µM | ≥ 10 µM | C* (an IC50 ratio of less than 3 fold between the IC50 in the HAP1 MTAP-intact cell line and the HAP1 MTAP-deleted cell line) | 0.05 to 0.5 µM | A (a Ki ratio greater than or equal to 10 fold between the Ki in the presence of SAM and the Ki in the presence of MTA) | ≥ 5 µM
Cc1ncoc1COc1ccc2c(c1)CCN(C[C@@H](O)CNC(=O)c1cc(NC3COC3)nc(N3CCCCC3)n1)C2 [Compound 405, N-[(2S)-2-hydroxy-3-{6-[(4-methyl-1,3-oxazol-5-yl)methoxy]-1,2,3,4-tetrahydroisoquinolin-2-yl}propyl]-6-[(oxetan-3-yl)amino]-2-(piperidin-1-yl)pyrimidine-4-carboxamide] | < 1 µM | 0.05 to 0.5 µM | < 1 µM | B* (an IC50 ratio greater than or equal to 3 fold but lower than 10 fold between the IC50 in the HAP1 MTAP-intact cell line and the HAP1 MTAP-deleted cell line) | 0.05 to 0.5 µM | A (a Ki ratio greater than or equal to 10 fold between the Ki in the presence of SAM and the Ki in the presence of MTA) | 0.5 to 5 µM
Cc1ncoc1COc1ccc2c(c1)CCN(C[C@@H](O)CNC(=O)c1cc(NC3CCC3)nc(OCCN(C)C)c1)C2 [Compound 406, 2-(cyclobutylamino)-6-[2-(dimethylamino)ethoxy]-N-[(2S)-2-hydroxy-3-{6-[(4-methyl-1,3-oxazol-5-yl)methoxy]-1,2,3,4-tetrahydroisoquinolin-2-yl}propyl]pyridine-4-carboxamide] | < 1 µM | 0.05 to 0.5 µM | < 1 µM | B* (an IC50 ratio greater than or equal to 3 fold but lower than 10 fold between the IC50 in the HAP1 MTAP-intact cell line and the HAP1 MTAP-deleted cell line) | < 0.05 µM | A (a Ki ratio greater than or equal to 10 fold between the Ki in the presence of SAM and the Ki in the presence of MTA) | 0.5 to 5 µM
O=C(NC[C@H](O)CN1CCc2cc(OCc3cnco3)ccc2C1)c1ccnc(NC2CCCC2)c1 [Compound 407, (S)-2-(cxclopentylamino)-N-(2-hydroxy-3-(6-(oxazol-5-ylmethoxy)-3N-dihydroisoquinolin-2(1H)-yl)propyl)isonicotinamide] | < 1 µM | 0.05 to 0.5 µM | < 1 µM | B* (an IC50 ratio greater than or equal to 3 fold but lower than 10 fold between the IC50 in the HAP1 MTAP-intact cell line and the HAP1 MTAP-deleted cell line) | 0.05 to 0.5 µM | A (a Ki ratio greater than or equal to 10 fold between the Ki in the presence of SAM and the Ki in the presence of MTA) | ≥ 5 µM
COCCN(C)c1nc(NC2COC2)cc(C(=O)NC[C@H](O)CN2CCc3cc(OCc4ocnc4C)ccc3C2)n1 [Compound 408, N-[(2S)-2-hydroxy-3-{6-[(4-methyl-1,3-oxazol-5-yl)methoxy]-1,2,3,4-tetrahydroisoquinolin-2-yl}propyl]-2-[(2-methoxyethyl)(methyl)amino]-6-[(oxetan-3-yl)amino]pyrimidine-4-carboxamide] | < 1 µM | 0.05 to 0.5 µM | < 1 µM | C* (an IC50 ratio of less than 3 fold between the IC50 in the HAP1 MTAP-intact cell line and the HAP1 MTAP-deleted cell line) | 0.05 to 0.5 µM | A (a Ki ratio greater than or equal to 10 fold between the Ki in the presence of SAM and the Ki in the presence of MTA) | 0.5 to 5 µM
CCC(=O)N1CCN(c2nc(NC3COC3)cc(C(=O)NC[C@H](O)CN3CCc4cc(OCc5ocnc5C)ccc4C3)n2)CC1 [Compound 409, N-[(2S)-2-hydroxy-3-{6-[(4-methyl-1,3-oxazol-5-yl)methoxy]-1,2,3,4-tetrahydroisoquinolin-2-yl}propyl]-6-[(oxetan-3-yl)amino]-2-(4-propanoylpiperazin-1-yl)pyrimidine-4-carboxamide] | ≥ 10 µM | 0.05 to 0.5 µM | 1 to 10 µM | B* (an IC50 ratio greater than or equal to 3 fold but lower than 10 fold between the IC50 in the HAP1 MTAP-intact cell line and the HAP1 MTAP-deleted cell line) | 0.05 to 0.5 µM | A (a Ki ratio greater than or equal to 10 fold between the Ki in the presence of SAM and the Ki in the presence of MTA) | 0.5 to 5 µM
CCN1CCN(c2cc(C(=O)NC[C@H](O)CN3CCc4cc(OCc5ocnc5C)ccc4C3)cc(NC3CCC3)n2)CC1 [Compound 410, 2-(cyclobutylamino)-6-(4-ethylpiperazin-1-yl)-N-[(2S)-2-hydroxy-3-{6-[(4-methyl-1,3-oxazol-5-yl)methoxy]-1,2,3,4-tetrahydroisoquinolin-2-yl}propyl]pyridine-4-carboxamide] | < 1 µM | 0.05 to 0.5 µM | < 1 µM | B* (an IC50 ratio greater than or equal to 3 fold but lower than 10 fold between the IC50 in the HAP1 MTAP-intact cell line and the HAP1 MTAP-deleted cell line) | 0.05 to 0.5 µM | A (a Ki ratio greater than or equal to 10 fold between the Ki in the presence of SAM and the Ki in the presence of MTA) | 0.5 to 5 µM
Cc1ncoc1COc1ccc2c(c1C)CCN(C[C@@H](O)CNC(=O)c1cc(NC3CCC3)nc(N3CCN(C(=O)C4CC4)CC3)c1)C2 [Compound 411, 2-(cyclobutylamino)-6-(4-cvclopropanecarbonylpiperazin-1-yl)-N-[(2S)-2-hydroxy-3-{5-methyl-6-[(4-methyl-1,3-oxazol-5-yl)methoxy]1,2,3,4-tetrahydroisoquinolin-2-yl}propyl]pyridine-4-carboxamide] | ≥ 10 µM | 0.05 to 0.5 µM | < 1 µM | A* (an IC50 ratio greater than or equal to 10 fold between the IC50 in the HAP1 MTAP-intact cell line and the HAP1 MTAP-deleted cell line) | 0.05 to 0.5 µM | A (a Ki ratio greater than or equal to 10 fold between the Ki in the presence of SAM and the Ki in the presence of MTA) | 0.5 to 5 µM
